Laboratory results published in patent US11407757B2, “Heterocycle compounds as Tyro3, Axl and MerTK (TAM) family of receptor tyrosine kinase inhibitors” (Development Center for Biotechnology, priority 2017, dated 2022).
Where two headings read alike, the source gives them in different places.

How the values were obtained:
Mer kinase = Mer kinase (Homo sapiens (Human), UniProt Q12866); test: Mer kinase assay (AlphaScreen); conditions: read-out: Mer kinase IC50; activity level class
Axl kinase = Axl kinase (Homo sapiens (Human), UniProt P30530); test: Axl kinase assay (AlphaScreen); type: biochemical; conditions: activity level class
Met kinase = Met kinase (Homo sapiens, UniProt P08581); test: Met kinase assay (AlphaScreen); type: biochemical
[1] = activity level class, read-out: Met kinase IC50

Row | SMILES | IC50 (Mer kinase) | IC50 (Axl kinase) | further results
1 | COc1nc(Nc2ccc(CN3CCC(C)CC3)cc2)nc2[nH]cc(-c3ccc(NS(=O)(=O)c4cc(F)ccc4F)cc3)c12 [Compound 2, 2,5-difluoro-N-(4-(4-methoxy-2-((4-((4-methylpiperidin-1-yl)methyl)phenyl)amino)-7H-pyrrolo[2,3-d]pyrimidin-5-yl)phenyl)benzene-sulfonamide] | < 30 nM | < 30 nM | IC50 (Met kinase): 100 to 400 nM
2 | COc1nc(Nc2ccc(CN3CCOCC3)cc2)nc2[nH]cc(-c3ccc(S(=O)(=O)N(C)C)cc3)c12 [Compound 7, 4-(4-methoxy-2-((4-(morpholinomethyl)phenyl)amino)-7H-pyrrolo[2,3-d]pyrimidin-5-yl)-N,N-dimethylbenzene-sulfonamide] | > 1000 nM | – | –
3 | COc1ccc(-c2c[nH]c3nc(Nc4ccc(CN5CCN(C)CC5)cc4)nc(OC)c23)cc1 [Compound 20, 4-methoxy-5-(4-methoxyphenyl)-N-(4-((4-methylpiperazin-1-yl)methyl)phenyl)-7H-pyrrolo[2,3-d] pyrimidin-2-amine] | > 1000 nM | – | –
4 | COc1nc(Nc2ccc(CN3CCC(C)CC3)cc2)nc2[nH]cc(-c3ccc(NC(=O)c4cc(C)n(C)n4)cc3)c12 [Compound 26, N-(4-(4-methoxy-2-((4-((4-methylpiperidin-1-yl)methyl)phenyl)amino)-7H-pyrrolo[2,3-d]pyrimidin-5-yl)phenyl)-1,5-dimethyl-7H-pyrazole-3-carboxamide] | > 1000 nM | – | –
5 | COCCOc1nc(Nc2ccc(CN3CCN(C)CC3)cc2)nc2[nH]cc(-c3ccc(C(F)(F)F)cc3)c12 [Compound 84, 4-(2-methoxyethoxy)-N-(4-((4-methylpiperazin-1-yl)methyl)phenyl)-5-(4-(trifluoromethyl)phenyl)-7H-pyrrolo[2,3-d]pyrimidin-2-amine] | > 1000 nM | – | –
6 | CCN(CC)S(=O)(=O)c1ccc(-c2c[nH]c3nc(Nc4ccc(CN5CCN(C)CC5)cc4)nc(OCCOC)c23)cc1 [Compound 86, N,N-diethyl-4-(4-(2-methoxyethoxy)-2-((4-((4-methylpiperazin-1-yl)methyl)phenyl)amino)-7H-pyrrolo[2,3-d]pyrimidin-5-yl)benzenesulfonamide] | > 1000 nM | – | –
7 | COCCOc1nc(Nc2ccc(CN3CCN(C)CC3)cc2)nc2[nH]cc(-c3ccc(OCc4ccccc4)cc3F)c12 [Compound 90, 5-(4-(benzyloxy)-2-fluorophenyl)-4-(2-methoxyethoxy)-N-(4-((4-methylpiperazin-1-yl)methyl)phenyl)-7H-pyrrolo[2,3-d]pyrimidin-2-amine] | > 1000 nM | – | –
8 | COCCOc1nc(Nc2ccc(CN3CCN(C)CC3)cc2)nc2[nH]cc(-c3ccc(S(=O)(=O)N4CCC4)cc3)c12 [Compound 94, 5-(4-(azetidin-1-ylsulfonyl)phenyl)-4-(2-methoxyethoxy)-N-(4-((4-methylpiperazin-1-yl)methyl)phenyl)-7H-pyrrolo[2,3-d]pyrimidin-2-amine] | > 1000 nM | < 30 nM | IC50 (Met kinase; [1]): > 1000 nM
9 | COCCOc1nc(Nc2ccc(CN3CCN(C)CC3)cc2)nc2[nH]cc(-c3ccc(O)cc3F)c12 [Compound 96, 3-fluoro-4-(4-(2-methoxyethoxy)-2-((4-((4-methylpiperazin-1-yl)methyl)phenyl)amino)-7H-pyrrolo[2,3-d]pyrimidin-5-yl)phenol] | < 30 nM | < 30 nM | IC50 (Met kinase): 100 to 400 nM
10 | COCCOc1nc(Nc2ccc(CN3CCN(C)CC3)cc2)nc2[nH]cc(-c3ccc4c(cnn4C)c3)c12 [Compound 97, 4-(2-methoxyethoxy)-5-(1-methyl-7H-indazol-5-yl)-N-(4-((4-methylpiperazin-1-yl)methyl)phenyl)-7H-pyrrolo[2,3-d]pyrimidin-2-amine] | – | < 30 nM | –
11 | COCCOc1nc(Nc2ccc(CN3CCN(C)CC3)cc2)nc2[nH]cc(-c3ccc(OCc4cnccc4OC)cc3F)c12 [Compound 99, 5-(2-fluoro-4-((4-methoxypyridin-3-yl)methoxy)phenyl)-4-(2-methoxyethoxy)-N-(4-((4-methylpiperazin-1-yl)methyl)phenyl)-7H-pyrrolo[2,3-d]pyrimidin-2-amine] | > 1000 nM | – | –
12 | COCCOc1nc(Nc2ccc(CN3CCN(C)CC3)cc2)nc2[nH]cc(-c3ccc(S(=O)(=O)N4CCN(C)CC4)cc3)c12 [Compound 102, 4-(2-methoxyethoxy)-N-(4-((4-methylpiperazin-1-yl)methyl)phenyl)-5-(4-((4-methylpiperazin-1-yl)sulfonyl)phenyl)-7H-pyrrolo[2,3-d]pyrimidin-2-amine] | > 1000 nM | – | –
13 | COCCOc1nc(Nc2ccc(CN3CCN(C)CC3)cc2)nc2[nH]cc(-c3ccc(OCc4cccc(C)n4)cc3F)c12 [Compound 103, 5-(2-fluoro-4-((6-methylpyridin-2-yl)methoxy)phenyl)-4-(2-methoxyethoxy)-N-(4-((4-methylpiperazin-1-yl)methyl)phenyl)-7H-pyrrolo[2,3-d]pyrimidin-2-amine] | – | < 30 nM | –
14 | COCCOc1nc(Nc2ccc(CN3CCN(C)CC3)cc2)nc2[nH]cc(-c3ccc(OCc4ccc(C)cn4)cc3F)c12 [Compound 105, 5-(2-fluoro-4-((5-methylpyridin-2-yl)methoxy)phenyl)-4-(2-methoxyethoxy)-N-(4-((4-methylpiperazin-1-yl)methyl)phenyl)-7H-pyrrolo[2,3-d]pyrimidin-2-amine] | – | < 30 nM | –
15 | COCCOc1nc(Nc2ccc(CN3CCN(C)CC3)cc2)nc2[nH]cc(-c3ccc(OCc4ncccn4)cc3F)c12 [Compound 107, 5-(2-fluoro-4-(pyrimidin-2-ylmethoxy)phenyl)-4-(2-methoxyethoxy)-N-(4-((4-methylpiperazin-1-yl)methyl)phenyl)-7H-pyrrolo[2,3-d]pyrimidin-2-amine] | – | < 30 nM | –
16 | COCCOc1nc(Nc2ccc(CN3CCC(C)CC3)cc2)nc2[nH]cc(-c3ccc(OCc4ncccc4C)cc3F)c12 [Compound 111, 5-(2-fluoro-4-((3-methylpyridin-2-yl)methoxy)phenyl)-4-(2-methoxyethoxy)-N-(4-((4-methylpiperidin-1-yl)methyl)phenyl)-7H-pyrrolo[2,3-d]pyrimidin-2-amine] | – | < 30 nM | –

Now from value to molecule, other results behind:

Row | IC50 (Mer kinase) | IC50 (Axl kinase) | SMILES | further results
17 | > 1000 nM | – | COc1nc(Nc2ccc(CN3CCC(N)CC3)cc2)nc2[nH]cc(-c3ccc(S(=O)(=O)N(C)C)cc3)c12 [Compound 6, 4-(2-((4-((4-aminopiperidin-1-yl)methyl)phenyl)amino)-4-methoxy-7H-pyrrolo[2,3-d]pyrimidin-5-yl)-N,N-dimethylbenzene-sulfonamide] | –
18 | > 1000 nM | – | COc1cc(-c2c[nH]c3nc(Nc4ccc(CN5CCC(C)CC5)cc4)nc(OC)c23)ccc1OCc1ccccc1 [Compound 44, 5-(4-(benzyloxy)-3-methoxyphenyl)-4-methoxy-N-(4-((4-methylpiperidin-1-yl)methyl)phenyl)-7H-pyrrolo[2,3-d] pyrimidin-2-amine] | –
19 | > 1000 nM | – | COc1nc(Nc2ccc(CN3CCN(C)CC3)cc2)nc2[nH]cc(-c3ccc(OCc4ccccc4)cc3F)c12 [Compound 46, 5-(4-(benzyloxy)-2-fluorophenyl)-4-methoxy-N-(4-((4-methylpiperazin-1-yl)methyl)phenyl)-7H-pyrrolo[2,3-d]pyrimidin-2-amine] | –
20 | > 1000 nM | – | COCCOc1nc(Nc2ccc(CN3CCN(C)CC3)cc2)nc2[nH]cc(-c3ccc(S(=O)(=O)N4CC(C)CC(C)C4)cc3)c12 (centres unmarked) [Compound 87, 5-(4-((3,5-dimethylpiperidin-1-yl)sulfonyl)phenyl)-4-(2-methoxyethoxy)-N-(4-((4-methylpiperazin-1-yl)methyl)phenyl)-7H-pyrrolo[2,3-d]pyrimidin-2-amine] | –
21 | > 1000 nM | – | COCCOc1nc(Nc2ccc(CN3CCN(C)CC3)cc2)nc2[nH]cc(-c3ccc(S(=O)(=O)N4CCOCC4)cc3)c12 [Compound 88, 4-(2-methoxyethoxy)-N-(4-((4-methylpiperazin-1-yl)methyl)phenyl)-5-(4-(morpholinosulfonyl)phenyl)-7H-pyrrolo[2,3-d]pyrimidin-2-amine] | –
22 | > 1000 nM | – | COCCOc1nc(Nc2ccc(CN3CCN(C)CC3)cc2)nc2[nH]cc(-c3ccc(S(=O)(=O)C(C)C)cc3)c12 [Compound 89, 5-(4-(isopropylsulfonyl)phenyl)-4-(2-methoxyethoxy)-N-(4-((4-methylpiperazin-1-yl)methyl)phenyl)-7H-pyrrolo[2,3-d]pyrimidin-2-amine] | –
23 | – | < 30 nM | COCCOc1nc(Nc2ccc(CN3CCN(C)CC3)cc2)nc2[nH]cc(-c3ccc(OCc4ccccn4)cc3F)c12 [Compound 92, 5-(2-fluoro-4-(pyridin-2-ylmethoxy)phenyl)-4-(2-methoxyethoxy)-N-(4-((4-methylpiperazin-1-yl)methyl)phenyl)-7H-pyrrolo[2,3-d]pyrimidin-2-amine] | –
24 | > 1000 nM | < 30 nM | COCCOc1nc(Nc2ccc(CN3CCN(C)CC3)cc2)nc2[nH]cc(-c3ccc(OCc4cccnc4)cc3F)c12 [Compound 95, 5-(2-fluoro-4-(pyridin-3-ylmethoxy)phenyl)-4-(2-methoxyethoxy)-N-(4-((4-methylpiperazin-1-yl)methyl)phenyl)-7H-pyrrolo[2,3-d]pyrimidin-2-amine] | IC50 (Met kinase; [1]): > 1000 nM
25 | – | < 30 nM | COCCOc1nc(Nc2ccc(CN3CCN(C)CC3)cc2)nc2[nH]cc(-c3ccc(OCc4cccc(F)n4)cc3F)c12 [Compound 104, 5-(2-fluoro-4-((6-fluoropyridin-2-yl)methoxy)phenyl)-4-(2-methoxyethoxy)-N-(4-((4-methylpiperazin-1-yl)methyl)phenyl)-7H-pyrrolo[2,3-d]pyrimidin-2-amine] | –
26 | – | < 30 nM | COCCOc1nc(Nc2ccc(CN3CCN(C)CC3)cc2)nc2[nH]cc(-c3ccc(OCc4ccccn4)cc3)c12 [Compound 110, 4-(2-methoxyethoxy)-N-(4-((4-methylpiperazin-1-yl)methyl)phenyl)-5-(4-(pyridin-2-ylmethoxy)phenyl)-7H-pyrrolo[2,3-d]pyrimidin-2-amine] | –
27 | – | < 30 nM | CCN1CCN(Cc2ccc(Nc3nc(OCCOC)c4c(-c5ccc(OCc6ncccc6C)cc5F)c[nH]c4n3)cc2)CC1 [Compound 112, N-(4-((4-ethylpiperazin-1-yl)methyl)phenyl)-5-(2-fluoro-4-((3-methylpyridin-2-yl)methoxy)phenyl)-4-(2-methoxyethoxy)-7H-pyrrolo[2,3-d]pyrimidin-2-amine] | –
